Test results as given in patent US8722663B2, “Di-substituted pyridine derivatives as anticancers” (Otsuka Pharmaceutical Co., Ltd., priority 2010, dated 2014).
Structures can show the parent of a compound that is named as a salt.

Experiments:
Assay type in all cases: cell-based
Settings in all cases: 120 h, 5 days with test compound
[1] = test system: human prostate (carcinoma) cell line (LNCaP.FGC); experiment: Growth inhibition of LNCaP.FGC cells, WST-8 assay
Experimental: (§1) The growth inhibition on a bicalutamide resistant human prostate cancer cell line established from LNCaP.FGC (LNCaP-Bic) (Hobisch A, et al. Prostate. 2006; 66(4):413-20.) was determined by a WST-8 assay according to the method of Singh A K, et al. (Cancer Lett. 1996 Oct. 1; 107(1): 109-15.). In this method, LNCaP-Bic cells were seeded in RPMI 1640 medium containing 10% fetal bovine serum in a 96-well microplate and incubated at 37° C. for 24 hours in the presence of 5% carbon dioxide. Then, the test compound was added and the cells were incubated for another 5 days. After incubation, a 15-μL volume of WST-8 (2-(2-methoxy-4-nitrophenyl)-3-(4-nitrophenyl)-5-(2,4-[…])-2H-tetrazolium, monosodium salt) was added. After the incubation for the time, the color reaction was stopped by adding 15 μL of 1% SDS (sodium dodecyl sulfate) solution and the optical density was determined at the measurement wavelength of 450 nm and the reference wavelength of 630 nm, and the difference was calculated. The cell growth activity in each well was defined as the value determined by subtracting the OD in the control well not containing cells (the difference in absorbance between 450 nm and 630 nm) from that in the test well.
(§2) The 50% inhibitory concentration (IC50 (nM)) of the test compound was determined by comparing the cell growth activity in the well containing the test compound with that of the control not containing the test compound.
The growth inhibition on a human prostate (carcinoma) cell line (LNCaP.FGC) (van Bokhoven A, et al. Prostate. 2003; 57(3):205-25.) was also determined by the above method.

[2] = test system: human prostate (adenocarcinoma) cell line (VcaP); experiment: Growth inhibition of VcaP cells, WST-8 assay
Experimental: as §1, §2
The growth inhibition on a human prostate (adenocarcinoma) cell line (VcaP) (Korenchuk S, et al. In Vivo. 2001; 15(2):163-8.) was also determined by the above method.

[3] = test system: human prostate (adenocarcinoma) cell line (PC-3); experiment: Growth inhibition of PC-3 cells, WST-8 assay
Experimental: as §1, §2
The growth inhibition on a human prostate (adenocarcinoma) cell line (PC-3) (van Bokhoven A, et al. Prostate. 2003; 57(3):205-25.) was also determined by the above method.

[4] = test system: human prostate (carcinoma) cell line (DU 145); experiment: Growth inhibition of DU 145 cells, WST-8 assay
Experimental: as §1, §2
The growth inhibition on a human prostate (carcinoma) cell line (DU 145) (van Bokhoven A, et al. Prostate. 2003; 57(3):205-25.) was also determined by the above method.

[5] = test system: bicalutamide resistant human prostate cancer cell line established from LNCaP.FGC (LNCaP-Bic); experiment: Growth inhibition of LNCaP-Bic cells, WST-8 assay
Experimental: as §1, §2

Measured: IC50

Cc1ccc(COc2ccc(Oc3c(C)cc(/C=C/C(=O)N4CCN(Cc5ccc(CCOc6ccc(F)cc6)cc5)[C@@H](C)C4)cc3Cl)nc2)cc1 [Example 392, (E)-3-[3-chloro-5-methyl-4-({5-[(4-methylbenzyl)oxy]pyridin-2-yl}oxy)phenyl]-1-[(3S)-4-{4-[2-(4-fluorophenoxy)ethyl]benzyl}-3-methylpiperazin-1-yl]prop-2-en-1-one]
< 10 nM: all assays above

Cc1ccc(OCCc2ccc(CN3CCN(C(=O)/C=C/c4cc(C)c(Oc5ccc(OCc6ccccc6F)cn5)c(Cl)c4)CC3)cc2)cc1 [Example 451, (E)-3-[3-Chloro-4-({5-[(2-fluorobenzyl)oxy]pyridin-2-yl}oxy)-5-methylphenyl]-1-(4-{4-[2-(4-methylphenoxy)ethyl]benzyl}piperazin-1-yl)prop-2-en-1-one hydrochloride]
< 10 nM: all assays above

Cc1ccc(OCCc2ccc(CN3CCN(C(=O)/C=C/c4cc(C)c(Oc5ccc(OCc6ccccc6Cl)cn5)c(Cl)c4)CC3)cc2)cc1 [Example 452, (E)-3-[3-Chloro-4-({5-[(2-chlorobenzyl)oxy]pyridin-2-yl}oxy)-5-methylphenyl]-1-(4-{4-[2-(4-methylphenoxy)ethyl]benzyl}piperazin-1-yl)prop-2-en-1-one hydrochloride]
< 10 nM: all assays above

Cc1cc(/C=C/C(=O)N2CCN(Cc3ccc(CCOc4ccc(Cl)cc4)cc3)CC2)cc(Cl)c1Oc1ccc(OCc2ccccc2Cl)cn1 [Example 466, (E)-3-[3-Chloro-4-({5-[(2-chlorobenzyl)oxy]pyridin-2-yl}oxy)-5-methylphenyl]-1-(4-{4-[2-(4-chlorophenoxy)ethyl]benzyl}piperazin-1-yl)prop-2-en-1-one hydrochloride]
< 10 nM: all assays above

CC(C)c1ccc(OCCc2ccc(CN3CCN(C(=O)/C=C/c4ccc(Oc5ccc(OCc6ccc(C#N)cc6)cn5)c(F)c4)CC3)cc2)cc1 [Example 593, 4-({[6-(2-Fluoro-4-{(E)-3-oxo-3-[4-(4-{2-[4-(propan-2-yl)phenoxy]ethyl}benzyl)piperazin-1-yl]prop-1-en-1-yl}phenoxy)pyridin-3-yl]oxy}methyl)benzonitrile hydrochloride]
< 10 nM: all assays above

Cc1ccc(OCCc2ccc(CN3CCN(C(=O)/C=C/c4cc(C)c(Oc5ccc(OCc6cscn6)cn5)c(C)c4)CC3)cc2)cc1 [Example 601, (E)-3-(3,5-Dimethyl-4-{[5-(1,3-thiazol-4-ylmethoxy)pyridin-2-yl]oxy}phenyl)-1-(4-{4-[2-(4-methylphenoxy)ethyl]benzyl}piperazin-1-yl)prop-2-en-1-one hydrochloride]
< 10 nM: all assays above

COc1ccc(COc2ccc(Oc3c(C)cc(/C=C/C(=O)N4CCN(Cc5ccc(CCOc6ccc(C)cc6)cc5C)CC4)cc3C)nc2)cc1 [Example 611, (E)-3-[4-({5-[(4-Methoxybenzyl)oxy]pyridin-2-yl}oxy)-3,5-dimethylphenyl]-1-(4-{2-methyl-4-[2-(4-methylphenoxy)ethyl]benzyl}piperazin-1-yl)prop-2-en-1-one hydrochloride]
< 10 nM: all assays above
